# “And” between values parts separate entries of the source, which are not always exact repeats. Identical values can stand only once. The source made the active and inactive calls.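 Rule for the calls: active = compounds giving half or more protection of infected cells from virus-caused growth loss, again on retest; inactive = the rest.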
# Test system: CEM cells HIV-1 protection, formazan growth assay
# Assay: NCI AIDS Antiviral Assay
# Settings: for IC50: measured here: growth of uninfected CEM cells
# Outline: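 Human CEM cells, uninfected and HIV-1-infected, received five drug concentrations, and growth was read by soluble formazan assay. Compounds giving at least 50% protection were retested; reproducible 100% protection defined confirmed active.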
SMILES,EC50,IC50,outcome
O=C(Cc1nccc2c1[nH]c1ccccc12)OC1C#CCSCC#C/C=C\1 (stereo unspecified),> 200 µM,28.2 µM,–
CC(=O)Nc1ccc(C(=O)n2[nH]c(C)c(/C=C3\C(=O)C=Cc4ccccc43)c2=O)cc1,> 87.1 µM,42.7 µM,–
CC1(C)OC(=O)C(=Cc2cccc(F)c2)C(=O)O1,> 525 µM,> 525 µM,–
COc1ccc(C2=[S+]C(c3ccccc3)(c3ccccc3)c3ccccc32)cc1,–,–,inactive
C[N+](C)(C)CC(=O)N/N=C(\Cc1nc2ccc([N+](=O)[O-])cc2[nH]c1=O)C(=O)Nc1nc2ccc([N+](=O)[O-])cc2s1,> 42.7 µM,> 42.7 µM,–
CC(C)OC(=S)Nc1ccc(Cl)c(/C=N/OC(C)(C)C)c1,> 24 µM,23.4 µM,–
O=C1CCC2(c3ccc(F)cc3)Nc3ccccc3N12 (stereo unspecified),–,–,inactive
O=C1c2cc(Cl)ccc2NC(=NCCCl)C2CSCN12 (stereo unspecified),> 200 µM,> 200 µM,–
CCCCN1[C@@H](C)C=C[C@@H](C)S1=O (stereo partly specified),–,–,inactive
O=C(Cn1c2ccc(Br)cc2c2nc3ccccc3nc21)NC1CCCCC1,> 100 µM,> 100 µM,–
Cc1ccc(-c2c(C#N)c(N)nc3c2CCS(=O)(=O)c2ccccc2-3)cc1,> 200 µM,77.6 µM,–
CC1(C)O[C@H]2OC(CO)C(OS(C)(=O)=O)[C@H]2O1 (stereo partly specified),> 200 µM,> 200 µM,–
CC(=O)NC1C(CO)OC(n2cnc([N+](=O)[O-])c2C(N)=O)C1O (stereo unspecified),> 200 µM,> 200 µM,–
CC(=O)NC(CCCN(Cc1ccccc1)C(=O)N(C)N=O)C(=O)NCc1ccccc1 (stereo unspecified),> 112 µM,> 112 µM,–
CC1(C)CC(=O)C(C=NC(=S)C(N)=S)=C(O)C1,> 200 µM,37.2 µM,–
Cc1ccccc1NC(=O)CC(=O)N1N=C(N(CCC#N)c2ccccc2Cl)CC1c1ccccc1 (stereo unspecified),> 263 µM,> 263 µM,–
O=C(NN1C(=O)C=CC1=O)c1ccccc1Nc1ccccc1C(=O)NN1C(=O)C=CC1=O,63.1 µM,191 µM,–
Cc1cc(=O)oc2cc3c(cc12)Oc1ccccc1O3,> 25.7 µM,> 25.7 µM,–
CCOC(=O)/C(=C/c1ccc(OC)c(OC)c1)P(=O)(OCC)OCC,> 676 µM,85.1 µM,–
O=S(=O)(O)SC/C=C\CSS(=O)(=O)O,–,–,inactive
CN(C)c1ccc(/C=C(\C#N)c2ccccc2Br)cc1,> 40.7 µM,3.98 µM,–

SMILES,EC50,IC50,outcome
C[Si](C)(C)/C(I)=C/CO,–,–,inactive
COc1cc2c3c(c1)C(O)CC[N+]3(C)CCC2 (stereo unspecified),> 200 µM,> 200 µM,–
CCOC(=O)C(NC(=O)c1ccccc1)(Nc1ccc(Cl)cc1C(F)(F)F)C(F)(F)F (stereo unspecified),> 200 µM,3.55 µM,–
c1ccc2oc(-c3ccc(-c4nc5ccccc5o4)c4c3CC4)nc2c1,> 50.1 µM,> 50.1 µM,–
Cc1c(CCOC=O)c(=O)[nH]c2nncn12,14.1 µM,> 200 µM,–
O=c1c2c3c(sc2nc2n1N=C(c1ccc(Cl)cc1)CS2)CCCC3,> 200 µM,> 200 µM,–
CN(C)CCN1C(=O)c2cccc3cc([N+](=O)[O-])cc(c23)C1=O,> 200 µM,0.0912 µM,–
Clc1ccc(CN2COc3c(ccc4ccccc34)C2)cc1,> 200 µM,70.8 µM,–
NC(N)=C1CN(C2CCCCC2)C(=O)NC1=O,> 1050 µM,794 µM,–
CC1=NNC(=O)C12CC2,–,–,inactive
CO[C@]1(c2ccc([N+](=O)[O-])cc2)Oc2ccccc2C(=O)[C@@]1(Nc1ccc(C=O)cc1)OC,> 200 µM,174 µM,–
CCOc1ccccc1N=Nc1ccc2oc(=O)c(C(C)=O)cc2c1,> 8.13 µM,> 8.13 µM,–
COc1cc2c(cc1OCc1ccccc1)C=CN(C(=O)c1ccccc1)C2C#N (stereo unspecified),–,–,inactive
O=C(Cn1nc(Br)c(Br)c1Br)c1ccccc1,> 200 µM,19.5 µM,–
CC1(C)Oc2ccc3c(=O)cc(-c4ccccc4)oc3c2C1C(=O)O (stereo unspecified),> 200 µM,> 200 µM,–
O=C(Nc1ccccc1)OCCN=c1c2ccccc2ccc2ccccc12,17 µM,24.5 µM,–
CS(=O)(=O)CC1=Nc2nnc(CCCCCCCc3nnc4n3C(=O)C(CS(C)(=O)=O)=N4)n2C1=O,> 10 µM,> 10 µM,–
COc1ccc(N2C(=O)C3c4[nH]c5ccccc5c4C4CCCCCCCC4C3C2=O)cc1 (stereo unspecified),> 200 µM,81.3 µM,–
CNS(=O)(=O)NN(C)S(=O)(=O)c1ccc(Cl)cc1,> 209 µM,204 µM,–
CC(C)=CC(=O)Cc1nc2cc(C)c(C)cc2[nH]c1=O,–,–,inactive
CC(C)(C)OC(=O)N(CCCCNCc1ccc2ccccc2c1)CCCNCc1ccc2ccccc2c1,> 2 µM,1.05 µM,–

SMILES,EC50,IC50,outcome
N#Cc1c2ccc([N+](=O)[O-])cc2c(=O)n2c1sc1ccccc12,> 200 µM,10.7 µM,–
O=C1NC(N2CCCCC2)=N/C1=C\c1cccs1,> 200 µM,151 µM,–
COc1ccc(C23CCC(=O)N2CCS3)cc1 (stereo unspecified),–,–,inactive
COc1ccc2nc3nc(-c4ccccc4)c(-c4ccccc4)nc3nc2c1,0.0813 µM,3.98 µM,–
CC(OC(C)(C)C)C(NC(=O)C(Cc1ccccc1)NC(=O)C(NC(=O)C(CCCCNC(=O)OC(C)(C)C)NC(=O)C(Cc1c[nH]c2ccccc12)C(=O)NC(Cc1ccccc1)NC(=O)C(Cc1ccccc1)NC(=O)C(CC(N)=O)NC(=O)C(N)CCCCNC(=O)OC(C)(C)C)C(C)OC(C)(C)C)C(=O)NC(COC(C)(C)C)C(=O)NC(CSC(C)(C)C)C(=O)OC(C)(C)C (stereo unspecified),87.1 µM,> 200 µM,–
C/C=C/C=C\C(=O)C1c2cccc(O)c2C(=O)c2c(O)cc(C)cc21 (stereo unspecified),> 21.4 µM,3.89 µM,–
O=C1Cc2c([nH]c3c(Cl)cccc23)-c2ccccc2N1,> 200 µM,11.5 µM,–
NC(=S=O)C(F)(F)C(F)(F)C(F)(F)F,> 105 µM,89.1 µM,–
COc1ccc2c(c1)OC[C@@H]1c3cc(O)c(OCc4ccccc4)cc3O[C@H]21,9.12 µM,24 µM,–
FC(F)=C(c1ccc(-c2ccc(Cl)cc2)cc1)C(F)(F)F,> 200 µM,20.9 µM,–
CC(=O)C1(C(=O)C(=[N+]=[N-])S(=O)(=O)c2ccccc2)CC1,> 851 µM,8.32 µM,–
S=C1Cc2cc3ccccc3nc2-c2ccccc2N1,> 100 µM,> 100 µM,–
N[C@H]1c2c(Cl)cccc2C(=O)[C@H]1O,> 200 µM,11 µM,–
COC1=C(C)C(=O)C(=O)c2cccnc21,–,–,inactive
CC1(C)[C@H](C(=O)O)N2C(=O)[C@@H](NS(=O)(=O)c3ccc([N+](=O)[O-])cc3)[C@H]2S1(=O)=O,> 200 µM,195 µM,–
O=C1CN2C(Cl)(Cl)C2(c2ccccc2)c2cc(Cl)ccc2N1CC1CC1 (stereo unspecified),> 200 µM,11.7 µM,–
O=C(O)c1cccc(S(=O)(=O)NN2C(=O)CSC2c2ccc(Cl)cc2Cl)c1 (stereo unspecified),> 200 µM,35.5 µM,–
COC(=O)c1cccc(COC(=O)c2cc(C(=CCC[C@H]3CC[C@@]4(C)[C@@H](CC[C@@H]5[C@@H]4CC[C@]4(C)[C@@H]([C@H](C)CCCC(C)C)CC[C@@H]54)C3)c3cc(Cl)c(OCc4cccc(C(=O)OC)c4)c(C(=O)OCc4cccc(C(=O)OC)c4)c3)cc(Cl)c2OCc2cccc(C(=O)OC)c2)c1,> 200 µM,> 200 µM,–
Clc1cc(Cl)c(SSc2cc(Cl)c(Cl)cc2Cl)cc1Cl,> 200 µM,> 200 µM,–
CCOC(=O)C1(c2ccccc2)CCNC(=O)CC1 (stereo unspecified),> 955 µM,> 955 µM,–
Cn1cnc([N+](=O)[O-])c1SSc1c([N+](=O)[O-])ncn1C,> 200 µM,> 200 µM,–

SMILES,EC50,IC50,outcome
CCC(C)(C)NS(=O)(=O)c1ccccc1,–,–,inactive
C=C(C)[C@@H]1CC[C@]2(COC(=O)CC(C)(C)CC(=O)O)CC[C@]3(C)[C@H](CC[C@@H]4[C@@]5(C)CC[C@H](OC(=O)CC(C)(C)CC(=O)O)C(C)(C)[C@@H]5CC[C@]43C)[C@@H]12,> 200 µM,7.08 µM,–
CC(Nc1n[nH]c(=O)c2c1nnn2Cc1ccccc1)c1ccccc1 (stereo unspecified),55 µM and 126 µM,97.7 µM and 447 µM,–
NC(N)=NS(=O)(=O)c1ccc(N=c2c3ccccc3n(Cc3ccccc3)c3ccccc23)cc1,–,–,inactive
O=[N+]([O-])C(=C(NCc1ccccc1)NCc1ccccc1)C(Cl)=C(Cl)Cl,> 200 µM,35.5 µM,–
N#Cc1ccc(Oc2ccccc2)cc1C#N,> 45.7 µM,> 45.7 µM,–
NC1=CN(CCCO)C2=N/C(=C\c3ccccc3)C(=O)N12,> 200 µM,> 200 µM,–
CCOC(=O)C1(C)CC12CCCCC2 (stereo unspecified),> 200 µM,> 200 µM,–
COc1ccccc1-n1c(NN)nc2ccc(Br)cc2c1=O,> 138 µM,30.9 µM,–
CC(=O)CC(=O)/C=C/c1cccs1,> 257 µM,178 µM,–
O=C(/C=C/c1ccccc1)CC1OC(=O)c2ccccc21 (stereo unspecified),> 245 µM,129 µM,–
CCOC(=O)C(=CCC1NCCc2c1[nH]c1ccccc21)C(=O)OCC (stereo unspecified),> 20.4 µM,12 µM,–
O=C(NCC(=O)N1CCCC1C(=O)OC(=O)C1CCCN1C(=O)CNC(=O)OCc1ccccc1)OCc1ccccc1 (stereo unspecified),> 38 µM,30.2 µM,–
C=C1C(=O)O[C@H]2C3C(=C(C)CC[C@@H]12)C(=O)[C@@H]1OC31C (stereo partly specified),> 200 µM,0.676 µM,–
CC/C=C(\C(=C/CC)[N+](=O)[O-])[N+](=O)[O-],> 200 µM,3.31 µM,–
COc1ccc(NCc2cc(OC)c(OC)c(OC)c2)cc1,> 2 µM,0.214 µM and 0.316 µM,–
CC(C)C1NC(=O)C(Cc2ccccc2)NC(=O)C2NC(=O)C(Cc3ccccc3)NC(=O)C3CCCN3C(=O)CNC(=O)C(Cc3ccccc3)NC(=O)C3CNCCCCC(C(=O)O)NC(=O)C4NC(=O)C(CC(N)=O)NC(=O)CNC(=O)C(C(O)C(=O)O)NC(=O)C(CSCC(NC(=O)C(CCC(N)=O)NC(=O)C(CCCNC(=N)N)NC(=O)C(N)CSC4C)C(=O)NC(CSC2C)C(=O)N3)NC1=O (stereo unspecified),–,–,active
CCOC(=O)CC(NC(=O)c1nc[nH]c1[N+](=O)[O-])C(=O)OCC (stereo unspecified),> 79.4 µM,39.8 µM,–
C=CCOC(=O)NC1C(OC(C)[C@@H](NC(=O)OCc2ccccc2)C(=O)OC(C)(C)C)OC(COC(C)=O)C(OC(C)=O)C1OC(C)=O (stereo partly specified),> 200 µM,28.8 µM,–

# Reference: PubChem BioAssay AID179 (DTP/NCI, 2004)
